According to patent US20050222269A1, “Use of deprenyl compounds to treat viral infections and reduce tissue damage associated therewith” (priority 1998, published 2005):

Legend:
rh BLCL/env cells = experiment: CTL-mediated killing (51Cr release) of rh BLCL/env cells expressing SIV env; assay type: cell-based, rhesus monkey; conditions: for Effect on CTL-mediated cell killing / lysis (in words): rh BLCL/env cells; for Percent Specific Lysis: rh BLCL/env target cells, compound 1.0 nM added at beginning of 5 hour assay, 51Cr release
Hela T4/env cells = experiment: CTL-mediated killing (51Cr release) of Hela T4/env cells expressing SIV env; assay type: cell-based; conditions: for Effect on CTL-mediated cell killing / lysis (in words): Hela T4/env cells; for Percent Specific Lysis: Hela T4/env target cells, compound 1.0 nM added at beginning of 5 hour assay, 51Cr release
ClR/env cells = experiment: CTL-mediated killing (51Cr release) of C1R/env cells expressing SIV env; assay type: cell-based, human; conditions: for Effect on CTL-mediated cell killing / lysis (in words): C1R/env cells; for Percent Specific Lysis: ClR/env target cells, compound 1.0 nM added at beginning of 5 hour assay, 51Cr release
huBLCL/env cells = experiment: CTL-mediated killing (51Cr release) of huBLCL/env cells expressing SIV env; assay type: cell-based, human; conditions: for Percent Specific Lysis: hu BLCL/env target cells, compound 1.0 nM added at beginning of 5 hour assay, 51Cr release
[1] = Stability of deprenyl as a function of pH of the medium; assay type: physicochemical; conditions: pH about 3-5 versus pH about 7
Text: The stability of deprenyl can be affected by the pH of the medium in which the deprenyl is formulated. […] Therefore, when formulating a deprenyl compound in a pharmaceutical composition, it is preferred that the deprenyl compound be maintained at a suitable pH. In preferred embodiments, a pharmaceutical composition of the invention has a pH in the range of about 3 to about 5, more preferably about 3 to about 4. Furthermore, ethyl alcohol is a preferred solvent for improving stability of deprenyl. Thus, in certain embodiments, alcoholic or aqueous alcoholic media are preferred for the pharmaceutical compositions of the invention.

GAPDH = GAPDH (Homo sapiens, UniProt P04406); assay type: biochemical; conditions: gel filtration of GAPDH incubated with DMD
Sequence of GAPDH (P04406 whole entry, species assumed): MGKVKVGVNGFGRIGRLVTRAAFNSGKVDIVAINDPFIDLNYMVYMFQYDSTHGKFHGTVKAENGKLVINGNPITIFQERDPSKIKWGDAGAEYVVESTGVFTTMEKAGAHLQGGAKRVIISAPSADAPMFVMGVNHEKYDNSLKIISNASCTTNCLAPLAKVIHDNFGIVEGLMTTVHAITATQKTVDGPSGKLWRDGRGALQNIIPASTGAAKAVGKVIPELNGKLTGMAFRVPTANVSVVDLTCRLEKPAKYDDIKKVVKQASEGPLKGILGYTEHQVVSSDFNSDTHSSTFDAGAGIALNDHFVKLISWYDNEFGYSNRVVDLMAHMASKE

SMILES	Effect on CTL-mediated cell killing / lysis (in words) (rh BLCL/env cells)	Percent Specific Lysis (rh BLCL/env cells) [%]	Effect on CTL-mediated cell killing / lysis (in words) (Hela T4/env cells)	Percent Specific Lysis (Hela T4/env cells) [%]	Effect on CTL-mediated cell killing / lysis (in words) (ClR/env cells)	Percent Specific Lysis (ClR/env cells) [%]	Percent Specific Lysis (huBLCL/env cells) [%]	Stability depending on pH [1]	Effect on CTL-mediated cell killing / lysis (in words) (huBLCL/env cells; huBLCL/env cells)	Effect on association of GAPDH monomers (tetrameric vs dimeric form) (GAPDH)
CC(=O)N[C@@H](CS)C(=O)O [NAC, N-acetyl cysteine]	effective in reducing lysis	6.32	effective in reducing lysis	30.74	effective in reducing lysis	29.12	13.41	–	–	–
C#CCN(C)C(C)Cc1ccccc1 (stereo not drawn) [deprenyl, N,α-dimethyl-N-2-propynylphenethylamine]	–	–	–	–	–	–	–	more stable at a pH in the range of about 3-5 than at a pH of about 7	–	–
C#CCNC(C)Cc1ccccc1 (single isomer, unassigned; (-)) [Desm., (−)-desmethyldeprenyl]	reduced cell killing in all four cell lines	4.34	reduced cell killing in all four cell lines	30.65	reduced cell killing in all four cell lines	6.98	−1.85	–	reduced cell killing in all four cell lines	inducing the conversion of GAPDH from the tetrameric form to the dimeric form
